The nature of test [1]: Selectivity ratio of binding affinity for alpha7 nAChR to alpha4beta2 nAChR.
Test [2] can be described thus: Selectivity ratio of binding affinity for alpha7 nAChR to muscle nAChR. To be noted: Muscle tissue. The class given is tissue-based.
Test [3] is described as follows: Selectivity ratio of binding affinity for alpha7 nAChR to alpha3beta2.

These results are taken from ChEMBL document CHEMBL1240444, “Aconitum and Delphinium alkaloids of curare-like activity. QSAR analysis and molecular docking of alkaloids into AChBP” (Eur J Med Chem, 2010).

For the compound `CCN1C[C@]2(COC(=O)c3ccccc3N3C(=O)C[C@H](C)C3=O)CC[C@H](OC)[C@@]34[C@@H]5C[C@H]6[C@H](OC)[C@@H]5[C@](O)(C[C@@H]6OC)[C@](O)([C@@H](OC)[C@H]23)[C@@H]14`, the Ratio in test [1] stood at 1000; in test [2], 10000; in test [3], 100.
